Experimental data taken from patent US12134616B2, “Tricyclic pesticidal compounds” (BASF SE, priority 2018, dated 2024).

Legend:
Type in all cases: in vivo
[1] = system: tobacco budworm (Heliothis virescens); test: Tobacco budworm (Heliothis virescens) microtiter diet test, egg and larval mortality; settings: 120 h, sprayed onto insect diet, 5 days, read-out: mortality (egg and larval) in comparison with untreated controls
Method: (§1) If not otherwise specified, the test solutions are prepared as follows: The active compound is dissolved at the desired concentration in a mixture of 1:1 (vol:vol) distilled water:acteone. The test solution is prepared at the day of use. Test solutions are prepared in general at concentrations of 1000 ppm, 500 ppm, 300 ppm, 100 ppm and 30 ppm (wt/vol).
For evaluating control of tobacco budworm (Heliothis virescens) the test unit consisted of 96-well-microtiter plates containing an insect diet and 15-25 H. virescens eggs. The compounds were formulated using a solution containing 75% v/v water and 25% v/v DMSO. Different concentrations of formulated compounds were sprayed onto the insect diet at 10 μl, using a custom built micro atomizer, at two replications. After application, microtiter plates were incubated at about 28±1° C. and about 80±5% relative humidity for 5 days. Egg and larval mortality was then visually assessed.

[2] = system: green peach aphid (Myzus persicae); test: Green peach aphid (Myzus persicae) artificial diet/membrane test, systemic; settings: 72 h, pipetted into aphid diet, 3 days, read-out: mortality (aphid) in comparison with untreated controls
Method: as §1
For evaluating control of green peach aphid (Myzus persicae) through systemic means the test unit consisted of 96-well-microtiter plates containing liquid artificial diet under an artificial membrane. The compounds were formulated using a solution containing 75% v/v water and 25% v/v DMSO. Different concentrations of formulated compounds were pipetted into the aphid diet, using a custom built pipetter, at two replications. After application, 5-8 adult aphids were placed on the artificial membrane inside the microtiter plate wells. The aphids were then allowed to suck on the treated aphid diet and incubated at about 23±1° C. and about 50±5% relative humidity for 3 days. Aphid mortality and fecundity was then visually assessed.

[3] = system: vetch aphid (Megoura viciae); test: Vetch aphid (Megoura viciae) broad bean leaf disk test, contact or systemic; settings: foliar, 120 h, sprayed onto leaf disks, 5 days, read-out: mortality (aphid) in comparison with untreated controls
Method: as §1
For evaluating control of vetch aphid (Megoura viciae) through contact or systemic means the test unit consisted of 24-well-microtiter plates containing broad bean leaf disks.
The compounds were formulated using a solution containing 75% v/v water and 25% v/v DMSO. Different concentrations of formulated compounds were sprayed onto the leaf disks at 2.5 μl, using a custom built micro atomizer, at two replications. After application, the leaf disks were air-dried and 5-8 adult aphids placed on the leaf disks inside the microtiter plate wells. The aphids were then allowed to suck on the treated leaf disks and incubated at about 23±1° C. and about 50±5% relative humidity for 5 days. Aphid mortality and fecundity was then visually assessed.

[4] = system: boll weevil (Anthonomus grandis); test: Boll weevil (Anthonomus grandis) microtiter diet test, egg and larval mortality; settings: 120 h, sprayed onto insect diet, 5 days, read-out: mortality (egg and larval) in comparison with untreated controls
Method: as §1
For evaluating control of boll weevil (Anthonomus grandis) the test unit consisted of 96-well-microtiter plates containing an insect diet and 5-10 A. grandis eggs. The compounds were formulated using a solution containing 75% v/v water and 25% v/v DMSO. Different concentrations of formulated compounds were sprayed onto the insect diet at 5 μl, using a custom built micro atomizer, at two replications. After application, microtiter plates were incubated at about 25±1° C. and about 75±5% relative humidity for 5 days. Egg and larval mortality was then visually assessed.

Measured: mortality at 2500 ppm

CCS(=O)(=O)c1cc(C(F)(F)F)cnc1-c1nc2cnc3c(OC(F)(F)F)cccc3c2n1C [Compound I.1, 2-[3-ethylsulfonyl-5-(trifluoromethyl)-2-pyridyl]-1-methyl-6-(trifluoromethoxy)imidazo[4,5-c]quinoline]
> 75%: all assays above

CCSc1cc(C(F)(F)F)cnc1-c1nc2cnc3c(OC(F)(F)F)cccc3c2n1C [Compound I.5, 2-[3-ethylsulfanyl-5-(trifluoromethyl)-2-pyridyl]-1-methyl-6-(trifluoromethoxy)imidazo[4,5-c]quinoline]
> 75%: [1] | [4]

CCS(=O)(=O)c1cccnc1-c1cn2c(ccc3c(C(F)(F)F)cc(C(F)(F)F)nc32)n1 [Compound I.54, 8-(3-ethylsulfonyl-2-pyridyl)-2,4-bis(trifluoromethyl)imidazo[1,2-a][1,8]naphthyridine]
> 75%: [1] | [3] | [4]

CCS(=O)(=O)c1cccnc1-c1nc2cc(C(F)(F)F)c3ccccc3n2n1 [Compound I.65, 2-(3-ethylsulfonyl-2-pyridyl)-5-(trifluoromethyl)-[1,2,4]triazolo[1,5-a]quinoline]
> 75%: all assays above
